Patent US10123537B2, “Amide compound or salt thereof, agricultural and horticultural insecticide and microbicide comprising the compound, and method for using the insecticide and microbicide” (NIHON NOHYAKU CO., LTD., priority 2013, dated 2018)

Columns and labels:
Meloidogyne incognita = test: Nematicidal test on Meloidogyne incognita; type: in vivo; details: 500 ppm, 1 mL soil drench, potted melon seedlings, 8 days after inoculation
Experimental: Nematicidal Test on Meloidogyne incognita
Agrochemical formulations containing different amide compounds represented by the general formula (I) of the present invention or salts thereof as an active ingredient were separately diluted to a concentration of 500 ppm. The diluted agrochemical formulations (1 mL) were drenched into the soil around the foot of potted melon seedlings. At one day after the agrochemical treatment, an aqueous suspension of Meloidogyne incognita (about 500 worms/mL) was drenched into the soil for inoculation both in a treatment plot and in a non-treatment plot. The inoculated pots were kept in a greenhouse at 25° C. At 8 days after the inoculation, the root of each seedling was washed with water, the number of root nodules was counted, and the nematicidal effect was evaluated according to the following criteria.
A: the percentage of the number of root nodules relative to the non-treatment plot is 0%.
B: the percentage of the number of root nodules relative to the non-treatment plot is 1 to 10%.
C: the percentage of the number of root nodules relative to the non-treatment plot is 11 to 20%.
D: the percentage of the number of root nodules relative to the non-treatment plot is 21 to 50%.

[1] = system: wheat powdery mildew fungus Erysiphe graminis; details: 200 ppm, foliar application to wheat plants, 10 mL per pot, 7 days after inoculation
Tetranychus urticae = test: Acaricidal test on Tetranychus urticae; type: in vivo; details: 500 ppm, kidney bean leaf disks dipped about 30 seconds, female adults, two days later, 25° C.
Source text: Acaricidal Test on Tetranychus urticae

Laodelphax striatella = test: Insecticidal test on Laodelphax striatella; type: in vivo; details: Laodelphax striatellus, 192 h, rice seedlings dipped 30 seconds, 3rd-instar larvae, 8 days after inoculation, read-out: insecticidal effect (corrected mortality rate) activity level
Source text: Insecticidal Test on Laodelphax striatella
The amide compounds represented by the general formula (I) of the present invention or salts thereof were separately dispersed in water and diluted to 500 ppm, and rice plant seedlings (variety: Nihonbare) were dipped in the agrochemical dispersions for 30 seconds. After air-dried, each seedling was put into a separate glass test tube and inoculated with ten 3rd-instar larvae of Laodelphax striatella, and then the glass test tubes were capped with cotton plugs. At 8 days after the inoculation, the numbers of surviving larvae and dead larvae were counted, the corrected mortality rate was calculated according to the formula shown below, and the insecticidal effect was evaluated according to the criteria of Test Example 1. Corrected mortality rate (%)=100×(Survival rate in a non-treatment plot−Survival rate in a treatment plot)/Survival rate in a non-treatment plot

Plutella xylostella = test: Insecticidal test on Plutella xylostella; type: in vivo; details: 144 h, Chinese cabbage seedlings with laid eggs dipped about 30 seconds, 25° C., 6 days after dip treatment, read-out: insecticidal effect (corrected mortality rate, hatched larvae) activity level
Source text: Insecticidal Test on Plutella xylostella
Adults of Plutella xylostella were released onto Chinese cabbage seedlings and allowed to lay eggs thereon. At 2 days after the release of the adults, the Chinese cabbage seedlings with laid eggs were dipped for about 30 seconds in agrochemical formulations diluted to 500 ppm, each of which contained a different amide compound represented by the general formula (I) of the present invention as an active ingredient. After air-dried, the seedlings were kept in a thermostatic chamber at 25° C. At 6 days after the dip treatment, the number of hatched larvae per plot was counted, the mortality rate was calculated according to the formula shown below, and the insecticidal effect was evaluated according to the criteria of Test Example 1. This test was conducted in triplicate using 10 adults of Plutella xylostella per plot. Corrected mortality rate (%)=100×(Number of hatched larvae in a non-treatment plot−Number of hatched larvae in a treatment plot)/Number of hatched larvae in a non-treatment plot

| Compound | nematicidal effect (number of root nodules relative to non-treatment plot) activity level (Meloidogyne incognita) | control effect (control rate, lesion area) activity level [1] | acaricidal effect (corrected mortality rate) activity level (Tetranychus urticae) | mortality at 500 ppm (Laodelphax striatella) [%] | mortality at 500 ppm (Plutella xylostella) [%] |
| --- | --- | --- | --- | --- | --- |
| CCS(=O)(=O)c1cc(C(F)(F)F)ccc1C(=O)N(C)c1ccc(C(OC)(C(F)(F)F)C(F)(F)F)cc1 [Compound 3-6] | D or higher | D or higher | D or higher |  |  |
| CCSc1cc(C(F)(F)F)ccc1C(=O)N(C)c1ccc(C(OC)(C(F)(F)F)C(F)(F)F)cc1 [Compound 3-4] |  |  | D or higher |  |  |
| CCSc1cc(C(F)(F)F)ccc1C(=O)N(C)c1ccc(C(F)(F)F)cn1 [Compound 1-1, 2-(ethylthio)-N-methyl-4-(trifluoromethyl)-N-(5-(trifluoromethyl)pyridin-2-yl)benzamide] | D or higher |  | D or higher | 100 | 100 |
| CCS(=O)(=O)c1cc(C(F)(F)F)ccc1C(=O)N(c1ccc(C(F)(F)F)cn1)C1CC1 [Compound 1-9] | D or higher |  | D or higher |  |  |
| CCN(C(=O)c1ccc(C(F)(F)F)cc1S(=O)(=O)CC)c1ccc(C(F)(F)F)cn1 [Compound 1-6] | D or higher | D or higher | D or higher |  |  |
| CCSc1cc(C(F)(F)F)ccc1C(=O)N(CC)c1ccc(C(F)(F)F)cn1 [Compound 1-4] | D or higher |  | D or higher |  |  |
| CC[S+]([O-])c1cc(C(F)(F)F)ccc1C(=O)N(C)c1ccc(C(F)(F)F)cc1 (stereo not drawn) [Compound 3-2] | D or higher |  | D or higher |  |  |
| CCS(=O)(=O)c1cc(C(F)(F)F)ccc1C(=O)N(C)c1ccc(C(F)(F)F)cc1 [Compound 3-3] | D or higher | D or higher | D or higher |  |  |
| CC[S+]([O-])c1cc(C(F)(F)F)ccc1C(=O)N(C)c1ccc(C(F)(F)F)cn1 (stereo not drawn) [Compound 1-2, 2-(ethylsulfinyl)-N-methyl-4-(trifluoromethyl)-N-(5-(trifluoromethyl)pyridin-2-yl)benzamide] | D or higher |  |  | 100 | 100 |
| CCS(=O)(=O)c1cc(C(F)(F)F)ccc1C(=O)N(C)c1ccc(C(F)(F)F)cn1 [Compound 1-3, 2-(ethylsulfonyl)-N-methyl-4-(trifluoromethyl)-N-(5-(trifluoromethyl)pyridin-2-yl)benzamide] | D or higher |  |  | 100 | 100 |
| CCSc1cc(C(F)(F)F)ccc1C(=O)N(C)c1ccc(C(F)(F)C(F)(F)F)cn1 [Compound 1-25] | D or higher |  | D or higher |  |  |
| CCS(=O)(=O)c1cc(C(F)(F)F)ccc1C(=O)N(C)c1ccc(C(F)(C(F)(F)F)C(F)(F)F)cc1 [Compound 3-9] | D or higher | D or higher |  |  |  |
| CC[S+]([O-])c1cc(C(F)(F)F)ccc1C(=O)N(c1ccc(C(F)(F)F)cn1)C1CC1 (stereo not drawn) [Compound 1-8] | D or higher |  | D or higher |  |  |
| CCN(C(=O)c1ccc(C(F)(F)F)cc1[S+]([O-])CC)c1ccc(C(F)(F)F)cn1 (stereo not drawn) [Compound 1-5] | D or higher | D or higher | D or higher |  |  |
| CCSc1cc(C(F)(F)F)ccc1C(=O)N(C)c1ccc(Cl)cc1 [Compound 3-21] | D or higher |  | D or higher |  |  |
| CCSc1cc(C(F)(F)F)ccc1C(=O)Nc1ccc(C(C(F)(F)F)C(F)(F)F)cc1 [Compound 4-5] | D or higher | D or higher |  |  |  |
| CCSc1cc(C(F)(F)F)ccc1C(=O)N(C)c1ccc(C(C(F)(F)F)C(F)(F)F)cc1 [Compound 3-10] | D or higher |  | D or higher |  |  |
| CCS(=O)(=O)c1cc(C(F)(F)F)ccc1C(=O)N(C)c1ccc(C(F)(F)C(F)(F)F)cn1 [Compound 1-26] | D or higher |  | D or higher |  |  |
| CCS(=O)(=O)c1cc(C(F)(F)F)ccc1C(=O)N(C)c1ccc(C(C(F)(F)F)C(F)(F)F)cc1 [Compound 3-11] | D or higher |  | D or higher |  |  |
